Laboratory results taken from patent US20240376094A2, “SELECTIVE BCL-XL PROTAC COMPOUNDS AND METHODS OF USE” (Les Laboratoires Servier, priority 2021, published 2024).
pIC50: −log10 of the molar value.

Experiments:
MOLT-4 cells = assay: MOLT-4 cell viability, CTG assay; type: cell-based; details: Homo sapiens, MOLT-4, 48 h
Description: The MTT colorimetric assay is based on the mitochondrial reduction of tetrazolium salt by living cells. The viable cell number is proportional to the production of formazan salts, which can be read spectrophotometrically at 540 nm. The CTG luminescent assay (CellTiter GLO, Promega) is based on a reagent which lyses cells and measures total adenosine triphosphate (ATP) content. The viable cell number is proportional to the production of ATP.
MOLT-4 cells were purchased from ATCC and cultivated in RPMI 1640 supplemented with 10% heat inactivated fetal bovine serum, penicillin (100 IU/mi), streptomycin (100 μg/ml) and L-glutamine (2 mM). Cells were cultured at 37° C. in a humidified atmosphere containing 5% […].
For CTG assay, cells were seeded in 384 microwell plates (40 μL per well) and exposed to the compounds for 48 h (11-point serial dilution with 5-fold factor, triplicates). At the end of incubation time, 40 μL of CTG solution were added per well. Wells were mixed thoroughly, and plates were incubated at room temperature for 10 minutes to stabilize luminescent signals prior to reading using a luminescence reader (PHERAStar FSX Reader, BMG Labtech).
IC50, were calculated using standard four-parametric curve fitting. IC50 is defined as the compound concentration at which the MTT or CTG signal is reduced to 50% of that measured for the control. Results shown in Table 14 represent the mean of at least 2 independent experiments.

Bcl-xL = molecular target: T1, Bcl-xL (Homo sapiens, UniProt Q07817); assay: HCT116 Bcl-xL degradation, capillary-based immunoassay (WES); type: cell-based; details: HCT116, 24 h, 9-point serial dilution
T1 construct: Measured levels of Bcl-xL protein of HCT116 cells treated with the tested compounds; host or cells: HCT116
Description: HCT116 cells were purchased from ATCC and cultivated in RPMI 1640 supplemented with 10% heat inactivated fetal bovine serum, penicillin (100 IU/mi), streptomycin (100 μg/ml) and L-glutamine (2 mM). Cells were cultured at 37° C. in a humidified atmosphere containing 5% CO2. Cells were seeded in 96 microwell plates, 24 h later cells were treated with compounds (2-point 10/100 nM and/or 9-point serial dilution to determine DC50; quadruplicates) during 24 h and harvested in lysis buffer containing 10 mM Hepes (pH 7.5), 150 mM KCl, 5 mM MgCl2, 1 mM EDTA, 0.4% TritonX100, protease and phosphatase inhibitors cocktails (Calbiochem).
Protein concentration in the supernatants was determined using the Pierce BCA protein assay kit (Thermo Fisher Scientific). Lysates (1.5 μg/μL) were analyzed using an automated capillary electrophoresis WES system with 2-40 kDa Wes Separation Module (25 capillary cartridges, Proteinsimple), in accordance with the manufacturer's protocols. Antibodies against the following proteins were used: Bcl-xL (#2764, Cell Signaling Technology, 1:50) and cofilin (#5175, Cell Signaling Technology, 1:1000). Signals were detected with an HRP-conjugated secondary anti-rabbit antibody (#042-206, Proteinsimple) and were quantified using Compass software (version 4.0, Proteinsimple).
Bcl-xL level was calculated by normalizing Bcl-xL values to cofilin and expressed as a percentage of the normalized value of the untreated cells. DC50 were calculated using standard four-parametric curve fitting. DC50 is defined as the compound concentration at which Bcl-xL is reduced to 50% of that measured for the control. Measured levels of Bcl-xL protein of HCT116 cells treated with the tested compounds at 2-point 10 nM/100 nM and/or 9-point for DC50 determination are shown in Table 15.

T1 sequence (Q07817 whole entry): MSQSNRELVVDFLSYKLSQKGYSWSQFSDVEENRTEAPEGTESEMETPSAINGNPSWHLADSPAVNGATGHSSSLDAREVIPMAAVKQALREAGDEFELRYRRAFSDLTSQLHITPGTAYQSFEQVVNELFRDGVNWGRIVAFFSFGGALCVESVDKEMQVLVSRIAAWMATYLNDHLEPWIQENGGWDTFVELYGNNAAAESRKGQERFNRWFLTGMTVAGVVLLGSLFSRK

pIC50 (MOLT-4 cells) | DC50 (Bcl-xL) [nM] | SMILES
7.71 | 0.951 | Cc1cc(N(CCCCN(C)C(=O)CCCCCCCCCCCNc2cccc3c2C(=O)N(C2CCC(=O)NC2=O)C3=O)c2ccc(-c3cnn(CC45CC6(C)CC(C)(C4)CC(OCCN(C)C)(C6)C5)c3C)c(C(=O)O)n2)nnc1Nc1nc2ccccc2s1 (stereo not drawn) [Example 93, 6-[[6-(1,3-benzothiazol-2-ylamino)-5-methyl-pyridazin-3-yl]-[4-[12-[[2-(2,6-dioxo-3-piperidyl)-1,3-dioxo-isoindolin-4-yl]amino]dodecanoyl-methyl-amino]butyl]amino]-3-[1-[[3-[2-(dimethylamino)ethoxy]-5,7-dimethyl-1-adamantyl]methyl]-5-methyl-pyrazol-4-yl]pyridine-2-carboxylic acid]
8.36 | > 316 | CN[C@@H](C)C(=O)N[C@H](C(=O)N1CCC[C@H]1c1nc(C(=O)c2cccc(OCCCCCCCCCCCCN(C)CCOC34CC5(C)CC(C)(CC(Cn6ncc(-c7ccc(N8CCCc9c8nnc(Nc8nc%10ccccc%10s8)c9C)nc7C(=O)O)c6C)(C5)C3)C4)c2)cs1)C1CCCCC1 [Example 96, 6-[3-(1,3-benzothiazol-2-ylamino)-4-methyl-6,7-dihydro-5H-pyrido[2,3-c]pyridazin-8-yl]-3-[1-[[3-[2-[12-[3-[2-[(2S)-1-[(2S)-2-cyclohexyl-2-[[(2S)-2-(methylamino)propanoyl]amino]acetyl]pyrrolidin-2-yl]thiazole-4-carbonyl]phenoxy]dodecyl-methyl-amino]ethoxy]-5,7-dimethyl-1-adamantyl]methyl]-5-methyl-pyrazol-4-yl]pyridine-2-carboxylic acid]
8.42 | 0.356 | CN[C@@H](C)C(=O)N[C@H](C(=O)N1CCC[C@H]1c1nc(C(=O)c2cccc(OCCCCCCCCN(C)CCOC34CC5(C)CC(C)(CC(Cn6ncc(-c7ccc(N8CCCc9c8nnc(Nc8nc%10ccccc%10s8)c9C)nc7C(=O)O)c6C)(C5)C3)C4)c2)cs1)C1CCCCC1 [Example 97, 6-[3-(1,3-benzothiazol-2-ylamino)-4-methyl-6,7-dihydro-5H-pyrido[2,3-c]pyridazin-8-yl]-3-[1-[[3-[2-[8-[3-[2-[(2S)-1-[(2S)-2-cyclohexyl-2-[[(2S)-2-(methylamino)propanoyl]amino]acetyl]pyrrolidin-2-yl]thiazole-4-carbonyl]phenoxy]octyl-methyl-amino]ethoxy]-5,7-dimethyl-1-adamantyl]methyl]-5-methyl-pyrazol-4-yl]pyridine-2-carboxylic acid]
8.32 | 0.362 | CN[C@@H](C)C(=O)N[C@H](C(=O)N1CCC[C@H]1c1nc(C(=O)c2cccc(OCCCCCCCCCCN(C)CCOC34CC5(C)CC(C)(CC(Cn6ncc(-c7ccc(N8CCCc9c8nnc(Nc8nc%10ccccc%10s8)c9C)nc7C(=O)O)c6C)(C5)C3)C4)c2)cs1)C1CCCCC1 [Example 98, 6-[3-(1,3-benzothiazol-2-ylamino)-4-methyl-6,7-dihydro-5H-pyrido[2,3-c]pyridazin-8-yl]-3-[1-[[3-[2-[10-[3-[2-[(2S)-1-[(2S)-2-cyclohexyl-2-[[(2S)-2-(methylamino)propanoyl]amino]acetyl]pyrrolidin-2-yl]thiazole-4-carbonyl]phenoxy]decyl-methyl-amino]ethoxy]-5,7-dimethyl-1-adamantyl]methyl]-5-methyl-pyrazol-4-yl]pyridine-2-carboxylic acid]
8.11 | 0.612 | CN[C@@H](C)C(=O)N[C@H](C(=O)N1CCC[C@H]1c1nc(C(=O)c2cccc(OCCN(C)CCOC34CC5(C)CC(C)(CC(Cn6ncc(-c7ccc(N8CCCc9c8nnc(Nc8nc%10ccccc%10s8)c9C)nc7C(=O)O)c6C)(C5)C3)C4)c2)cs1)C1CCCCC1 [Example 101, 6-[3-(1,3-benzothiazol-2-ylamino)-4-methyl-6,7-dihydro-5H-pyrido[2,3-c]pyridazin-8-yl]-3-[1-[[3-[2-[2-[3-[2-[(2S)-1-[(2S)-2-cyclohexyl-2-[[(2S)-2-(methylamino)propanoyl]amino]acetyl]pyrrolidin-2-yl]thiazole-4-carbonyl]phenoxy]ethyl-methyl-amino]ethoxy]-5,7-dimethyl-1-adamantyl]methyl]-5-methyl-pyrazol-4-yl]pyridine-2-carboxylic acid]

Second part, the molecule before the results:

SMILES | pIC50 (MOLT-4 cells) | DC50 (Bcl-xL) [nM]
Cc1ncsc1-c1ccc(CNC(=O)[C@@H]2C[C@@H](O)CN2C(=O)[C@@H](NC(=O)C2(F)CC2)C(C)(C)C)c(OCCCCCCCCCCCCCCCN(C)CCOC23CC4(C)CC(C)(CC(Cn5ncc(-c6ccc(N7CCCc8c7nnc(Nc7nc9ccccc9s7)c8C)nc6C(=O)O)c5C)(C4)C2)C3)c1 [Example 83, 6-[3-(1,3-benzothiazol-2-ylamino)-4-methyl-6,7-dihydro-5H-pyrido[2,3-c]pyridazin-8-yl]-3-[1-[[3-[2-[15-[2-[[[(2S,4R)-1-[(2S)-2-[(1-fluorocyclopropanecarbonyl)amino]-3,3-dimethyl-butanoyl]-4-hydroxy-pyrrolidine-2-carbonyl]amino]methyl]-5-(4-methylthiazol-5-yl)phenoxy]pentadecyl-methyl-amino]ethoxy]-5,7-dimethyl-1-adamantyl]methyl]-5-methyl-pyrazol-4-yl]pyridine-2-carboxylic acid] | 8.33 | 4.49
Cc1cc(N(CCCCN(C)C(=O)CCCCCCCCCCNc2cccc3c2C(=O)N(C2CCC(=O)NC2=O)C3=O)c2ccc(-c3cnn(CC45CC6(C)CC(C)(C4)CC(OCCN(C)C)(C6)C5)c3C)c(C(=O)O)n2)nnc1Nc1nc2ccccc2s1 (stereo not drawn) [Example 90, 6-[[6-(1,3-benzothiazol-2-ylamino)-5-methyl-pyridazin-3-yl]-[4-[11-[[2-(2,6-dioxo-3-piperidyl)-1,3-dioxo-isoindolin-4-yl]amino]undecanoyl-methyl-amino]butyl]amino]-3-[1-[[3-[2-(dimethylamino)ethoxy]-5,7-dimethyl-1-adamantyl]methyl]-5-methyl-pyrazol-4-yl]pyridine-2-carboxylic acid] | 7.77 | 1.33
Cc1cc(N(CCCCN(C)C(=O)CCCCCCCCNc2cccc3c2C(=O)N(C2CCC(=O)NC2=O)C3=O)c2ccc(-c3cnn(CC45CC6(C)CC(C)(C4)CC(OCCN(C)C)(C6)C5)c3C)c(C(=O)O)n2)nnc1Nc1nc2ccccc2s1 (stereo not drawn) [Example 91, 6-[[6-(1,3-benzothiazol-2-ylamino)-5-methyl-pyridazin-3-yl]-[4-[9-[[2-(2,6-dioxo-3-piperidyl)-1,3-dioxo-isoindolin-4-yl]amino]nonanoyl-methyl-amino]butyl]amino]-3-[1-[[3-[2-(dimethylamino)ethoxy]-5,7-dimethyl-1-adamantyl]methyl]-5-methyl-pyrazol-4-yl]pyridine-2-carboxylic acid] | 7.90 | 0.407
Cc1cc(N(CCCCN(C)C(=O)CCCCCCCCCNc2cccc3c2C(=O)N(C2CCC(=O)NC2=O)C3=O)c2ccc(-c3cnn(CC45CC6(C)CC(C)(C4)CC(OCCN(C)C)(C6)C5)c3C)c(C(=O)O)n2)nnc1Nc1nc2ccccc2s1 (stereo not drawn) [Example 92, 6-[[6-(1,3-benzothiazol-2-ylamino)-5-methyl-pyridazin-3-yl]-[4-[10-[[2-(2,6-dioxo-3-piperidyl)-1,3-dioxo-isoindolin-4-yl]amino]decanoyl-methyl-amino]butyl]amino]-3-[1-[[3-[2-(dimethylamino)ethoxy]-5,7-dimethyl-1-adamantyl]methyl]-5-methyl-pyrazol-4-yl]pyridine-2-carboxylic acid] | 7.83 | 0.954
